Reference: patent US20250275993A1, “GLYCOSYLATION INHIBITORS AS THERAPEUTICS FOR STROKE” (The Regents of the University of California, priority 2022, published 2025)

How the values were obtained:
[1] = tested on: bovine choroidal microvascular endothelial cells (BCEC); experiment: BCEC proliferation assay (AlamarBlue / crystal violet); format: cell-based
Protocol: The effect of ManN on EC proliferation was assessed.
AlamarBlue detects mitochondria activity as an indication of cell viability which correlates with cell number at certain ranges.
Proliferation assays with BCECs and BRECs were performed. Log-phase growing BCECs or BRECs (passage <10) were trypsinized, re-suspended and seeded in 96-well plates (no coating) in low-glucose DMEM supplemented with 10% bovine calf serum, 2 mM glutamine, and antibiotics (growth medium), at a density of 1200-1500 cells per well in 200 μl volume. All reagents were added at the indicated final concentrations. After 3-6 days, cells were incubated with AlamarBlue for 4 hrs. Fluorescence was measured at 530 nm excitation wavelength and 590 nm emission wavelength. The experiments were repeated at least three times. […] 20% methanol or 0.05% DMSO served as negative controls. […] Human RMVECs and human adult DMVECs were split into Gelatin-coated 96 wells (2000 cells per well) in low glucose DMEM containing 10% FBS. 1200 cells/well was set up for proliferation assay in low glucose media containing 0.5% FBS. Data was collected at day 4 or 5. HUVEC (p7-10) were grown on gelatin-coated plate until it reached 70-80% confluency.
On the day of the assay, cells were dissociated with 0.05% trypsin, which was neutralized with 0.5% FBS-containing EBM. Cells were briefly spun and then re-suspended in 0.5% FBS-media. Cells were counted and plated in 96-well, 1000 cells/well. Triplicate wells were used for each treatment. Data were collected at day 3, and then cells were fixed in 4% paraformaldehyde for 15 min before adding crystal violet. Cell-covered areas were quantified after taking pictures by Image J software.

JNK/c-jun = experiment: Western blot of JNK pathway activation in BCECs; format: cell-based, bovine
Protocol: (§1) Cells were allowed to reach-80% confluency in 12-well plates. […] At various time points, plates were taken out of the incubator and kept on ice. Cell monolayers were first washed once with ice-cold PBS before lysis with 250 μI of Pierce RIPA buffer (ThermoFisher Scientific, Rockford, IL) or use 50 mM Tris-HCl (pH 7.6), 150 mM NaCl, 10% Glycerol, 1% NP-40 containing protease/Phosphatase inhibitor cocktail (100×) (Cell signaling, #5872). Lysates were collected and mixed with 4× Bolt LDS Sample Buffer (Novex, Carlsbad, CA) in the presence of Halt protease inhibitors and phosphatase inhibitor cocktail (ThermoFisher scientific, #NP0007). The samples were subjected to SDS-PAGE (Bolt 4-12% Bis-Tris Plus, Invitrogen) using Bolt MES SDS running buffer or NuPAGE 3-8% Tris-Acetate gel using Tris-Acetate SDS running buffer (Novex). HUVECs (passage 6-8) were plated in EBM-2 basal medium (Lonza) with 0.2% FBS. Following overnight culture, cells were serum-starved in EBM-2 medium for 4 hrs prior to treatment with 50 ng/ml of VEGF165 or vehicle controls for various lengths. Equal amounts of protein lysates were analyzed by SDS-PAGE and blotted with the indicated antibodies. Proteins were transferred using Tris-Glycine buffer with 20% Methanol (Proteonomics grade) (Apex BioResearch Products). Membranes were first incubated with 5% milk in TBST, pH 7.6 (TEKnova, Hollister, CA), followed by blotting with primary and secondary antibodies. ECL anti-rabbit IgG, horseradish peroxidase linked whole antibody from donkey or sheep anti-mouse were obtained from GE Healthcare (UK limited). SuperSignal West Dura Extended Duration substrate was from ThermoFisher Scientific. In some cases, the same PVDF membranes were stripped by 8-min incubation in the Restore Plus Western Blot Stripping Buffer (ThermoFisher Scientific) to show total specific protein expression, followed by second stripping for (3-actin expression.

VEGFR2 = VEGFR2 western blot in BCECs (molecular mass, phosphorylation, PNGase F); format: cell-based, bovine
Protocol: Glycerol-free PNGase F was obtained from New England Biolabs (Ipswich, MA). Briefly, BCECs were lysed with NP-40 containing proteinase inhibitors (Thermo Scientific, Waltham, MA). Lysates were cleared at 4° C. at 5000 g for 25 mins. Total protein content was measured using Pierce BCA protein assay kit (Thermo Scientific). 20 mg of protein was mixed with 10× denaturing buffer and H2O to a total volume of […]. Glycoproteins were denatured at 100° C. for 10 mins, followed by adding Glycobuffer and PNGase F. The reaction was carried out at 37° C. for 2 hr.
as §1, with “Cell monolayers were first washed once with ice-cold PBS before lysis with 250 μI of Pierce RIPA buffer (ThermoFisher Scientific, Rockford, IL) or use 50 mM Tris-HCl (pH 7.6), 150 mM NaCl, 10% Glycerol, 1% NP-40 containing protease/Phosphatase inhibitor cocktail (100×) (Cell signaling, #5872).” left out, “The samples were subjected to SDS-PAGE (Bolt 4-12% Bis-Tris Plus, Invitrogen) using Bolt MES SDS running buffer or NuPAGE 3-8% Tris-Acetate gel using Tris-Acetate SDS running buffer (Novex).” left out

Bip, CHOP, ATF-6 = experiment: Western blot of UPR responsive proteins in BCECs; format: cell-based, bovine

For O=C1N[C@@H]2[C@@H](O)[C@@H](O)[C@H](O)[C@@H](CO)N2C1=O [Kif, Kifunensine, reference compound], the “BCEC proliferation by glycosylation inhibitors” value ([1]; 0.01 to 100 μM, 3 days, absence or presence of 5 ng/ml VEGF) was “stimulated in a dose-dependent fashion”, the “activation of the JNK pathway by glycosylation inhibitors” value (JNK/c-jun; 40 μM, BCECs, FIG. 7E) was “able to activate the JNK pathway” and the “VEGFR2 molecular mass on SDS-PAGE after glycosylation inhibitors” value (VEGFR2; 24 hours) was “reduction in VEGFR2 molecular mass”. The “Bip expression by glycosylation inhibitors” value (Bip, CHOP, ATF-6; media without growth factors for 24 hours) was “dose-dependent induction of Bip expression”.
For N[C@H](C=O)[C@@H](O)[C@H](O)[C@H](O)CO [ManN, 2-Amino-2-deoxy-D-mannose], the “additivity with VEGF in promoting BCEC proliferation” value ([1]; 5 ng/ml VEGF) was “additive with VEGF in promoting BCEC proliferation”, the “additivity with bFGF in promoting BCEC proliferation” value ([1]; 20 ng/ml bFGF, FIG. 11A) was “Additive effects” and the “shape of dose-response on BCEC proliferation” value ([1]; 0.5 μM to 1 mM, 5-6 days, with or without VEGF) was “bell-shaped dose-response curve, with inhibition at higher concentrations”. For the same compound, the “dose range with significant stimulatory effects on BCEC proliferation” value ([1]; BCEC) was 5-500 UM, the “maximal fold increase in EC-covered surface” value ([1]; ManN at 50 μM alone, crystal violet, FIG. 1A) was roughly 6.5 fold and the “cytotoxicity in glucose-free media” value ([1]; as little as 4 μM ManN, even in the presence of VEGF) was “significant cytotoxicity”. For the same compound, the “additivity between ManN and VEGF in glucose-free media” value ([1]; glucose-free media) was “abolished”, the “activation of JNK and downstream c-Jun” value (JNK/c-jun; BCECs switched to media without growth factors, 4 μM-4 mM, four hours) was “significantly activated by ManN in a dose-dependent manner” and the “concentration from which VEGFR2 apparent molecular mass shifts” value (VEGFR2; BCECs and BRECs) was no less than 40 µM. For the same compound, the “duration of ManN effects on protein mass in the absence of exogenous ManN” value (VEGFR2; BCECs, FIG. 4E) was “at least 8 hours”, the “protein mass of av integrin, Neuropilin-1, VE-cadherin and bFGFR1” value (VEGFR2; ManN in BCEC) was “affected as well” and the “VEGFR2 phosphorylation in response to VEGF” value (VEGFR2; ManN pre-treated cells) was “decreased”. The “reversibility of VEGFR2 molecular mass change after ManN removal” value (VEGFR2; after 24 hours) was “completely reverse”, the “ligand-independent VEGFR2 activation” value (VEGFR2; after ManN addition in BCECs) was “No ligand-independent VEGFR2 activation” and the “dependence of ManN effects on VEGFR2 signaling” value (VEGFR2; experiments with axitinib) was “not dependent on VEGFR2 signaling”. The “specificity of VEGFR2 molecular mass shift” value (VEGFR2; hexosamines and derivatives at 40 μM, 24 hours) was “unique to ManN among hexosamines and their derivatives”, the “extent of loss of VEGFR2 glycosylation (PNGase F treatment)” value (VEGFR2; μM concentrations of ManN) was “not all the glycosylation on VEGFR2 was abolished” and the “synergy between ManN and VEGF in promoting Bip or CHOP expression” value (Bip, CHOP, ATF-6; FIG. 5B) was “No synergy”. The “time of CHOP induction” value (Bip, CHOP, ATF-6; ManN, dose-dependent) was “about 6 hours” and the Bip expression (Bip, CHOP, ATF-6; growing cells deprived of growth factor, evident at 24 and 48 hours) was “significantly turn on Bip expression in a concentration-dependent manner”.
